Experimental data from patent publication US20080131867A1, “Method for Determining the Effectiveness of a Treatment for Preeclampsia” (priority 2006, published 2008).

Assays:
[1] = test system: PP13 release from placenta explants; experiment: Therapeutic effectiveness on PP13 release from standardized placenta explants in presence of patient serum (indirect method); type: cell-based, human
Description: Scenario 1: Simple Direct Tailoring with a Diversity of Drugs. • We have standardized culture conditions for first trimester explants or explants obtained after delivery. • Explants could be the ones made of patients after delivery or those obtained by Chorionic villi sampling (CVS) at gestational weeks 10-12 or other placenta biopsies as the case may be. • Standardization means defined median viability index, protein content in the explant, total protein released to the medium, PP13 content in the explant and PP13 release from the explant, among others. • Drug effect in-vitro is the effect of drug applied to the culture medium on PP13 release from the placenta explant after 24 hr to 7 days. The effect is compared to the baseline release as measured without the drug. • The Therapeutic Index is thus the in-vitro relative effectiveness of the drug when applied to explants as measured by the difference between PP13 release with (PP13D1) and without (PP130) the drug by the equation: (PP130−PP13D1)/PP130, after normalizing to viability, protein content etc as described above, given all other parameters are the same. • It is important to note that in the first trimester (gestational weeks 6-13) PP13 in diseased patient is lower than Normal. Thus the therapeutic index is to return PP13 release is calculated as drugs that elevate PP13 release. In the third trimester (gestational week 26 and above), PP13 is higher in preeclamptic patients than normal. Thus the therapeutic index is decreasing PP13 release back to Normal. • According to the in-vitro therapeutic index one drug or a drug combinations are selected for the in-vivo interventional medication treatment. • Follow up: after selecting the drug to be administrating to the patient, bi-weekly blood testing follow up is recommended to be carried out by measuring the PP13 in the blood and calculating
If so, drugs that appears beneficial to standardized culture explants wouldn't work when applied together with the patient samples. It can be seen that the serum from the patient at high risk for preeclampsia caused serious inhibition of many of the types of treatment.

[2] = test system: PP13 release from placental (villous) explants; experiment: PP13 release from placental (villous) explants cultured 48 hours (FIGS. 7-11); type: cell-based, human
Description: The tissue of each woman was divided into 16 different portions, exposed each to diversified conditions and cultured for 48 hours;
The following results were obtained with placental (villous) explants from 16 cases of normal women, 12 cases of preeclampsia and 3 cases of HELLP women, which were cultured in DMEM/F12 for 48 hours at 6% or 20% O2. Conditioned media was collected after culture and tested for total protein and PP13. PP13 release was related to total protein.
The explants tested in Example 6 were retested using, in addition to the two oxygen levels, two different levels of magnesium, 0.7 mM and 1.4 mM.
Note that the latter combination also affected the HELLP cases. […]

[3] = test system: PP13 release from cultured chorionic villi; experiment: PP13 release from cultured chorionic villi of GW 9-10 (48 hr culture, ELISA); type: cell-based, human; conditions: for PP13 (pg/ml) release: 48 hr
Description: From left to right, the explants are shown at transfer (6 hours) and after 36 hr in culture. Cultures are grown in conditioned medium. After 48 hr in culture, the supernatant is collected, centrifuged and the […] is diluted in PBS and checked for the concentration of PP13 by sandwich ELISA using PP13 standards to calibrate the reaction OD to PP13 concentration. The PP13 level may be normalized to the gestational age according to the linear regression of the total points and to the protein level of the explant; […] The placenta cells/explants were cultured for 48 hr and PP13 was measured in the culture medium by ELISA (in the same manner as described in FIG. 1).

PP13 = experiment: Serum PP13 values and 1st-to-2nd trimester slope in women treated with vitamin E (FIG. 4); type: in vivo, human
Description: Unless otherwise indicated, in all experiments, PP13 was measured (blinded to pregnancy outcome) in maternal venous serum by solid-phase sandwich ELISA assay. The PP13 level was calibrated according to standard curves prepared from calibrated standards of recombinant PP13. Concentrations are given in pg PP13/ml serum.
The slope may be calculated as follows:
Slope=(PP13(2nd trimester)−PP13(1st trimester)/GW(2nd trimester)−GW(1st trimester)).
Normal vs. preeclampsia slopes are shown in FIG. 4, and the cutoff between normal and preeclampsia to reach 80% sensitivity is a slope of 3.5. The slope helps to further verify the risk for preeclampsia.
If after establishing the risk by two tests the women at high risk are treated daily by administering the anti-oxidant vitamin E, the treated women have a lower slope (FIG. 4). From the relatively large confidence level one can see that not all women were affected in the same way. Thus, the approach can be further used to enable one to see how the slope can be reduced by medications and its correlation to the reduced risk to develop the pathology, thereby considering discontinuing the treatment, elevating the drug level or selecting a different treatment for individual patients. The combined and contingent approaches indicate that multiple testing is necessary only for women at risk whereas low risk patients may avoid repeated testing.

[4] = applied with serum from a Normal Patient
[5] = applied with serum from a Patient at high risk for preeclampsia

For `[Cl-].[Cl-].[Mg+2]` [Magnesium, MgCl2], the “Therapeutic Effectiveness on PP13 release from placenta explants” value (shortened to “Therapeutic Effectiveness”) [1, 4] was 50%, the “Therapeutic Effectiveness” value [1, 5] was 20% and the “Effect on PP13 release” value ([2]; HELLP explants, hyperoxia (20%), increase in Mg (1.4 mM)) was “elevated release of PP13”. The “Effect on PP13 release” value ([2]; HELLP explants, normoxia (6%), elevated Mg (1.4 mM)) was “elevated release of PP13”, the “Effect on PP13 release” value ([2]; explants from normal pregnant women, elevated oxygen (20%) and MgCl2 (1.4 mM)) was “not affected” and the “Effect on PP13 release” value ([2]; preeclamptic explants, magnesium 1.4 mM in 6% oxygen) was “not in 6% oxygen”. The “Effect on PP13 release” value ([2]; preeclamptic explants, magnesium 1.4 mM in 20% oxygen) was “brought back to the normal level”.
`O=O` [Oxygen, oxygen] was tested, and the “Effect on PP13 release” value ([2]; explants from HELLP cases, 20% vs 6% oxygen, 48 hours, listed as O2) was “reduced by 20% O2 to below the normal level”, the “Effect on PP13 release” value ([2]; explants from HELLP cases, 20% vs 6% oxygen, 48 hours, listed as hyperoxia) was “almost complete halt in PP13 release” and the “Effect on PP13 release” value ([2]; explants from normal women, 20% vs 6% oxygen, 48 hours) was “no effect”. The “Effect on PP13 release” value ([2]; explants from normal women, 20% vs 6% oxygen, 48 hours, listed as hyperoxia) was “remained at the same level”, the “Effect on PP13 release” value ([2]; explants from preeclampsia women, 20% vs 6% oxygen, 48 hours) was “decreased significantly” and the “Effect on PP13 release” value ([2]; explants from preeclampsia women, 20% vs 6% oxygen, 48 hours, listed as hyperoxia) was “significantly less PP13 release”. The “Increase of PP13 release under 20% oxygen compared to 6% oxygen” value ([3]; 3 high risk women, no vitamin C) was roughly 2 factor, the “PP13 (pg/ml) release” value ([3]; Case 1, normal risk, 20% oxygen (hyperoxia), no vitamin C) was 14,250 pg/ml and the “PP13 (pg/ml) release” value ([3]; Case 2, normal risk, 20% oxygen (hyperoxia), no vitamin C) was 15,500 pg/ml. For the same compound, the “PP13 (pg/ml) release” value ([3]; Case 3, high-risk (preeclampsia), 20% oxygen (hyperoxia), no vitamin C) was 5,000 pg/ml, the “PP13 (pg/ml) release” value ([3]; Case 3, high-risk (preeclampsia), 20% oxygen (hyperoxia), no vitamin C, listed as oxygen) was 5000 pg/mL and the “PP13 (pg/ml) release” value ([3]; Case 4, high-risk (preeclampsia), 20% oxygen (hyperoxia), no vitamin C) was 4,300 pg/ml. For the same compound, the “PP13 (pg/ml) release” value ([3]; Case 5, high-risk (preeclampsia), 20% oxygen (hyperoxia), no vitamin C) was 7,900 pg/ml.
For `O=C1O[C@H]([C@@H](O)CO)C(O)=C1O` [Vitamin C, vitamin C], the “Increase of PP13 release with vitamin C vs. without” value ([3]; 3 high risk women, 6% oxygen, 48 hours incubation) was 3-4 times, the “PP13 (pg/ml) release” value ([3]; Case 1, normal risk, 6% oxygen, with vitamin C) was 14,300 pg/ml and the “PP13 (pg/ml) release” value ([3]; Case 1, normal risk, 20% oxygen, with vitamin C) was 14990 pg/mL. The “PP13 (pg/ml) release” value ([3]; Case 2, normal risk, 6% oxygen, with vitamin C) was 15,390 pg/ml, the “PP13 (pg/ml) release” value ([3]; Case 2, normal risk, 20% oxygen, with vitamin C) was 15,300 pg/ml and the “PP13 (pg/ml) release” value ([3]; Case 3, high-risk (preeclampsia), 6% oxygen, with vitamin C) was 12,030 pg/ml. The “PP13 (pg/ml) release” value ([3]; Case 3, high-risk (preeclampsia), 20% oxygen, with vitamin C) was 5,100 pg/ml, the “PP13 (pg/ml) release” value ([3]; Case 4, high-risk (preeclampsia), 6% oxygen, with vitamin C) was 9,230 pg/ml and the “PP13 (pg/ml) release” value ([3]; Case 4, high-risk (preeclampsia), 20% oxygen, with vitamin C) was 4,421 pg/ml. For the same compound, the “PP13 (pg/ml) release” value ([3]; Case 5, high-risk (preeclampsia), 6% oxygen, with vitamin C) was 15760 pg/mL, the “PP13 (pg/ml) release” value ([3]; Case 5, high-risk (preeclampsia), 6% oxygen, with vitamin C, listed as vitamin C) was 15,790 pg/ml and the “PP13 (pg/ml) release” value ([3]; Case 5, high-risk (preeclampsia), 20% oxygen, with vitamin C) was 8,100 pg/ml. The “Additional effect of vitamin C on PP13 release under 20% oxygen” value ([3]; high risk women, 20% oxygen (hyperoxia)) was “no additional effect”.
aprotinin was tested, and the “Effect on PP13 release” value ([2]; HELLP explants, normoxia and high Mg (FIG. 11B)) was “almost back to normal”.
In the case of heparin, the “Therapeutic Effectiveness” value [1, 4] is reported as 56%, the “Therapeutic Effectiveness” value [1, 5] is reported as 20% and the “Effect on PP13 release” value ([2]; hyperoxia and normal Mg (FIG. 11C)) is reported as “almost back to normal”.
For vitamin E, the “Effect on PP13” value (PP13; 16-20 weeks, vitamin E) was “no significant effect”, the “Effect on PP13 level/release” value (PP13; cases of preeclampsia, 6-10 weeks, early application of vitamin E) was “doubles PP13 release towards the normal level” and the “Effect on PP13 release” value (PP13; normal patients, 6-10 weeks, vitamin E) was “without affecting PP13 release”. The “Effect on PP13 release” value (PP13; preeclamptic women, 24-28 weeks, vitamin E) was “reduces PP13 release back to the normal level”, the “PP13 slope (1st-to-2nd trimester)” value (PP13; women at high risk treated daily with vitamin E) was “lower slope” and the “Therapeutic Effectiveness” value [1, 4] was 30%. For the same compound, the “Therapeutic Effectiveness” value [1, 5] was 0%.
